Laboratory results reported in article PMC9970268 (Cancer Research Communications, 2022).

Tests used:
GFP-HER2-BM cells = assay: Cell viability (MTT) assay; assay type: cell-based, human; conditions: for GI50: 0 to 1,000 nmol/L
Procedure: (§1) Using CellTiter 96 Non-Radioactive Cell Proliferation Assay (Promega, Corp.) according to manufactures’ instructions, formazan was used as an indicator of viable cells at an absorbance 570 nm in a Tecan Microplate Reader M100 (Tecan). Data were calculated as fold change from vehicle and transformed to logarithm base 10. 0 concentration was replaced with 1 nmol/L to fit using the 4-parameter logic nonlinear regression model in GraphPad Prism software. (n = 3 biologic replicates: with three technical replicates each).
(§2) All half maximal growth inhibitory concentration (GI50) values were determined by using the 4-parameter logistic curve model in GraphPad Prism 9 software. Statistical analyses were done also using GraphPad Prism 9 software, and differences were considered statistically significant at P ≤ 0.05 using ordinary one-way ANOVA or unpaired Student t test with Dunnet multiple comparison tests.

MCF10A cells = assay: Cell viability (MTT) assay; assay type: cell-based, human; conditions: for inhibition of cell viability: 250 nmol/L, 120 hr; for GI50: Homo sapiens, MCF-10A, 120 hours, 0 to 1,000 nmol/L
Procedure: as §1, §2

MDA-MB-231 cells [1] = assay: Cell viability (MTT) assay; assay type: cell-based, human; conditions: for inhibition of cell viability: 250 nmol/L, 120 hr; for GI50: 120 hours, 0 to 1,000 nmol/L
Procedure: as §1, §2

HMEC cells = assay: Cell viability (MTT) assay; assay type: cell-based, human; conditions: 120 hours, 0 to 1,000 nmol/L
Procedure: as §1

MCF7 breast cancer cells = assay: Cell viability (MTT) assay; assay type: cell-based, human; conditions: 250 nmol/L, 120 hr
Procedure: as §1
Supplementary Figure S1. Percentage cell viability of MDA-MB-231, GFP-HER2-BM, […]
nM for 120 hr. The bar graphs are presented as individual fold change data points from vehicle and grouped mean ± SEM. (n = 3; *, P < 0.05; ** P < 0.01).
(1 picture or pasted object on this page, not shown here)

MDA-MB-231 cells [2] = assay: Wound healing assay; assay type: cell-based, human; conditions: 250 nmol/L; 12 and 24 hours
Procedure: MDA-MB-231 cells were plated on 12-well plates at equal cell density until confluent. Then the media was changed to 1% FBS, and a single scratch was made in the center of the monolayer culture with a pipet tip. Compounds were added immediately at 250 or 500 nmol/L and images were digitally acquired from a Keyence microscope (10×) at 0, 12, and 24 hours. The scratch area was quantified in ImageJ using the Macro Wound Healing Tool (http://dev.mri.cnrs.fr/projects/imagej-macros/wiki/Wound_Healing_Tool; n = 3 biologic replicates: with three technical replicates each).

A549 lung cancer cells = assay: EGF-induced ruffle formation; assay type: cell-based, human; conditions: 24 hours, then EGF 200 ng/mL; for loss in ruffles: 500 nmol/L; for decrease in ruffles: 1,000 nmol/L
Procedure: Cells were fixed with 4% formaldehyde and F-actin stained with rhodamine phalloidin. Slides were visualized by fluorescence microscopy and five random fields were scored for the number of ruffles. Ruffle area was measured by thresholding for single intensity using ImageJ/Fiji software, as in ref. [29].

Rho = Rho activation assay (Rho.GTP-binding domain of Rhotekin); assay type: cell-based, human; conditions: 250 nmol/L
Text: Cells were lysed and equal amounts of proteins were subjected to pulldown assays using the p21-binding domain of PAK to isolate the GTP bound Rac1 or Cdc42. […] Top, Pulldown showing GTP bound Rac1; Middle, Total Rac1 in lysates; Bottom, Actin as a loading control. B, Right, Results from positive bands in Western blots quantified using ImageJ. […] Top band, Rac1B.GTP from the pulldown; Middle band, Total Rac1B from cell lysates; Bottom band, Actin (N = 3). […] Top, Pulldown showing GTP bound Cdc42; Middle, Total Cdc42 in lysates; Bottom, Actin as a loading control. E, Right, Results from positive bands in Western blots quantified using ImageJ. […] (n = 3–4; *, P < 0.05; **, P < 0.01; ns, not significant). Error bars represent SEM. […] Rho activation assay was done using the Rho.GTP-binding domain of Rhotekin. […] Cells were lysed and Western blotted for total and active PAK. Left, Top, Cell lysates probed with an anti PAK1/2/3 antibody; second, Western blot analysis with anti phospho (p)-PAK (1/2/3)^Ser141,144,154; third, Western blot analysis with p-PAK (1/2/3)^Thr423; fourth, Anti actin. H, Fold change in p-PAK/PAK for PAK 1/3 (68 kD) for total p-PAK^Ser141,144,154 and p-PAK^Thr423. (n = 3; **, P < 0.01; ***, P < 0.001; ns, not significant). […] Tumor lysates were Western blotted with antibodies specific for Rac1, Cdc42, PAK1/2/3, p-PAK (1/2/3)^Ser141,144,154, or p-PAK^Thr423. […]

Cdc42 [3] = biological target: T1, Cdc42 (Homo sapiens, UniProt P60953); assay: Nucleotide association assay, catalyzed by Dbs; assay type: biochemical; design: purchased Cytoskeleton, Inc; conditions: 2 or 10 μmol/L, N-MAR-GTP
T1 sequence (P60953 whole entry): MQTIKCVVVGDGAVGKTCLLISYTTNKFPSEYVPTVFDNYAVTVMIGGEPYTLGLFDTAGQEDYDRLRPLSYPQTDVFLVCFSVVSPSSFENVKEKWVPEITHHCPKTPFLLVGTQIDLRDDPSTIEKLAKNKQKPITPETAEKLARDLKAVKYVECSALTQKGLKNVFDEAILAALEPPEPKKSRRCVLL
Procedure: (§3) The nucleotide loading on purified Rho GTPases was monitored using a fluorophore-based Rho GEF Exchange Assay Kit as per manufacturer's instructions (Cytoskeleton, Inc.). Drugs were diluted in exchange buffer and incubated with Rac1, Cdc42, or RhoA. The uptake of fluorescent nucleotide analog N-methylanthraniloyl-GTP (N-MAR-GTP) was measured as an increase in fluorescence due to binding to the nucleotide binding pocket of a GTPase. The fluorimeter was set at 20°C on kinetic mode and N-MAR GTP was detected at […]. After the initial five readings (T0), GEFs (Dbs or Vav2) or Ethylenediaminetetraacetic acid (EDTA) was added to stimulate exchange and readings were obtained every 30 seconds for at least 60 cycles.

Cdc42 [4] = biological target: T1, Cdc42; assay: Nucleotide association assay, induced by EDTA; assay type: biochemical; design: purchased Cytoskeleton, Inc; conditions: for EDTA-induced nucleotide loading of N-MAR-GTP on Cdc42: 2 and 10 μmol/L
Procedure: as §3

| SMILES | inhibition of cell viability (GFP-HER2-BM cells; 250 nmol/L, 120 hr) | inhibition of cell viability (GFP-HER2-BM cells; 500 nmol/L, 72 hours) | GI50 (GFP-HER2-BM cells; Homo sapiens, 120 hours) | inhibition of cell viability (MCF10A cells) | GI50 (MCF10A cells) | inhibition of cell viability (MDA-MB-231 cells [1]) | GI50 (MDA-MB-231 cells [1]; Homo sapiens, MDA-MB-231) | effect on viability of HMECs (HMEC cells) | inhibition of cell viability (MCF7 breast cancer cells) | wound closure (MDA-MB-231 cells [2]) | loss in ruffles (A549 lung cancer cells) | decrease in ruffles (A549 lung cancer cells) | Rho activation (Rho) | inhibition of GTP loading on Cdc42 catalyzed by Dbs (Cdc42 [3]) | inhibition at 10 µM (Cdc42 [4]; 10 μmol/L, N-MAR-GTP, read-out: inhibition of EDTA-induced GTP exchange on Cdc42) | EDTA-induced nucleotide loading of N-MAR-GTP on Cdc42 (Cdc42 [4]) | GI50 (GFP-HER2-BM cells; 120 hours) | GI50 (GFP-HER2-BM cells; Homo sapiens, 120 h) | GI50 (MDA-MB-231 cells [1]) | GI50 (MDA-MB-231 cells [1]; Homo sapiens, MDA-MB-231, 120 h) |
| --- | --- | --- | --- | --- | --- | --- | --- | --- | --- | --- | --- | --- | --- | --- | --- | --- | --- | --- | --- | --- |
| CCn1c2ccccc2c2cc(-n3nncc3-c3cccc(OC)c3)ccc21 [MBQ-168] | approximately 85% | approximately 75% | 171 nM | 30% | 304 nM | 50% | 199 nM | did not affect the viability of HMECs | 40% | wound area was maintained at 12 and 24 hours | 67% | 79% | do not affect | 10%–20% | 100% | reduced nucleotide loading at both 2 and 10 μmol/L |  |  |  |  |
| CCn1c2ccccc2c2cc(-n3nncc3-c3ccccc3)ccc21 [MBQ-167] | approximately 85% | approximately 75% |  | 30% | 296 nM | 50% |  | did not affect the viability of HMECs | 40% | wound area was maintained at 12 and 24 hours | 54% | 63% | do not affect | did not affect |  | inhibited the nucleotide loading of N-MAR-GTP at 10 μmol/L | ~160 nM | 163 nM | ~160 nM | 162 nM |
